In patent US9212134B2, “Inhibitors of viral entry into mammalian cells” (priority 2010, dated 2015):

Columns and labels:
[1] = system: HIV/HA (H5) pseudotype virus; experiment: organism not typed; assay type: cell-based, influenza A virus H5N1; details: for inhibition at 25 µM: A549, read-out: % inhibition @ 25 μM influenza
[2] = system: HIV/VSV-G pseudotype virus; experiment: organism not typed; assay type: cell-based, vesicular stomatitis virus; details: read-out: % inhibition @ 25 μM VSV
Pseudotype ebola virus = experiment: microbe, parasite or virus in culture; assay type: cell-based; details: Zaire ebolavirus, read-out: % inhibition @ 25 μM EBOV
[3] = system: cell viability (endogenous cellular GAPDH); experiment: Cell viability, AlphaScreen SureFire GAPDH assay; details: cytotoxicity

| Compound | inhibition at 25 µM [1] [%] | inhibition at 25 µM [2] [%] | inhibition at 25 µM (Pseudotype ebola virus) [%] | CC50 [3] [µM] | IC50 [1] [µM] |
| --- | --- | --- | --- | --- | --- |
| COc1ccc(S(=O)(=O)N(CC(=O)Nc2cccc3ccccc23)c2ccc(C)cc2)cc1 [Compound 12305_B04] | 47 | 0 | 85 |  |  |
| CS(=O)(=O)N(CC(=O)Nc1ccccc1F)c1cc(C(F)(F)F)ccc1Cl [Compound 12020_E02] | 86 | 68 | 43 |  |  |
| O=C(CN(c1cccc(Cl)c1)S(=O)(=O)c1ccccc1)Nc1ccccc1Cl [Compound 19] |  |  |  | 90.3 | > 100 |
| COC(=O)c1ccccc1NC(=O)CN(c1ccc(C)cc1)S(=O)(=O)c1ccccc1 [Compound 30636_C03] | 26 | 42 | 87 |  |  |
| O=C(CN(c1ccc(Cl)cc1Cl)S(=O)(=O)c1ccccc1)Nc1ccc(F)cc1 [Compound 10] |  |  |  | 50.5 | 25 |
| Cc1ccc(N(CC(=O)Nc2ccccc2C(C)C)S(C)(=O)=O)cc1 [Compound 12402_E03] | 47 | 22 | 85 |  |  |
| COc1ccc(N(CC(=O)Nc2ccccc2C)S(=O)(=O)c2ccccc2)cc1 [Compound 11] |  |  |  | > 100 | > 100 |
| O=C(CN(c1ccc(Cl)cc1Cl)S(=O)(=O)c1ccccc1)Nc1ccccc1F [Compound 6] |  |  |  | > 25 | 5.3 |
| COc1ccc(S(=O)(=O)N(CC(=O)Nc2ccc(F)c(Cl)c2)c2ccccc2)cc1 [Compound 12078_D04] | 40 | 60 | 87 |  |  |
| COc1ccc(N(CC(=O)Nc2ccccc2F)S(=O)(=O)c2ccccc2)cc1Cl [Compound 12441_B08] | 33 | 7 | 98 |  |  |
| COc1ccc(OC)c(N(CC(=O)Nc2ccc(Cl)cc2)S(=O)(=O)c2ccc(C)cc2)c1 [Compound 8] |  |  |  | > 100 | > 100 |
| Cc1ccc(S(=O)(=O)N(CC(=O)Nc2cccc(C)c2)c2ccccc2Cl)cc1 [Compound 22] |  |  |  | > 100 | > 100 |
| Cc1c(Cl)cccc1NC(=O)CN(c1ccc(I)cc1)S(C)(=O)=O [Compound 12076_B09] | 86 | 21 | 48 |  |  |
| COc1ccc(S(=O)(=O)N(CC(=O)Nc2ccc(F)cc2F)c2ccc(Cl)cc2)cc1 [Compound 12079_A05] | 19 | 0 | 86 |  |  |
| CCOc1ccc(N(C(C)C(=O)Nc2cccc(C(F)(F)F)c2)S(C)(=O)=O)cc1 (stereo not shown) [Compound 11982_F11] | 87 | 73 | 25 |  |  |
| COc1ccccc1N(CC(=O)Nc1cccc(C)c1C)S(=O)(=O)c1ccccc1 [Compound 14] |  |  |  | > 100 | > 100 |
| COc1ccc(N(CC(=O)Nc2ccc(F)cc2)S(=O)(=O)c2ccccc2)cc1 [Compound 12] |  |  |  | > 100 | > 100 |
| COc1ccc(OC)c(NC(=O)CN(c2ccccc2Cl)S(=O)(=O)c2ccc(C)cc2)c1 [Compound 21] |  |  |  | > 100 | > 100 |
| Cc1cccc(C)c1NC(=O)CN(c1cccc(Cl)c1)S(=O)(=O)c1ccccc1 [Compound 17] |  |  |  | > 100 | > 100 |
| CCc1ccccc1N(CC(=O)Nc1cccc(F)c1)S(C)(=O)=O [Compound 12112_H02] | 86 | 0 | 0 |  |  |
| COc1ccc(S(=O)(=O)N(CC(=O)Nc2ccccc2SC)c2ccc(Cl)cc2)cc1 [Compound 12794_B09] | 0 | 63 | 100 |  |  |
| COc1cccc(NC(=O)CN(c2ccc(Cl)cc2C)S(=O)(=O)c2ccc(C)cc2)c1 [Compound 15] |  |  |  | 43.4 | > 100 |
| COC(=O)c1ccccc1NC(=O)CN(c1ccc(C)cc1)S(=O)(=O)c1ccc(OC)cc1 [Compound 11978_G07] | 22 | 29 | 89 |  |  |
